2 compounds from patent publication US20170065593A1, “Combination” (Novartis AG, priority 2009, published 2017) can be followed below.

Like-named read-outs stand apart in the source and are kept apart here.

As a reminder, the IC50 is the midpoint of a concentration-inhibition curve.

For one experiment, the system named is A549. In words: Cell growth inhibition assay (Cell Titer Glo, 3 days). Conditions: A549 (KRAS_G12S), single agent, mean ± std. It is filed as cell-based, Human. Here is the method: (§1) Human tumor cell lines from lung cancer, A427, A549, Calu1, Calu3, Calu6, COR-L23, HOP62, MV522, NCI-H1155, NCI-H1299, NCI-H1355, NCI-H1395, NCI-H157, NCI-H1573, NCI-H1666, NCI-1755, NCI-H1792, NCI-2009, NCI-H2030, NCI-H2122, NCI-H2291, NCI-H23, NCI-H2347, NCI-H358, NCI-H441, NCI-H460, NCI-H650, NCI-H727, SW1573 and SW900 were cultured in RPMI 1640 medium containing 10% fetal bovine serum (FBS). Cell line mutation data was collated for the status for the RAS and RAF genes. The data source is the cancer cell line mutation screening data published as part of the Catalog of Somatic Mutations in Cancer database (COSMIC) (Bamford S. et al. Br. J. Cancer. 2004. 91:355-58) and/or in house DNA sequencing.
(§2) Cells were seeded in a 96-well tissue culture plate (NUNC 136102) of RPMI medium containing 10% FBS at 500-2,000 cells per well. Approximately 24 hours after plating, cells were exposed to ten, two-fold or three-fold serial dilutions of either Compound A or B or the combination of the two agents at a 10:1 molar ratio (Compounds A and B respectively). The final dosing concentration range for Compound A was 2-1000 nM and was 0.2-100 nM for Compound B. Cells were incubated in the presence of compounds for 3 days. ATP levels were determined by adding Cell Titer Glo® (Promega) according to the manufacturer's protocol. Briefly, Cell Titer Glo® was added to each plate, incubated for 20 minutes then luminescent signal was read on the SpectraMax L plate reader with a 0.5 sec integration time. All assays were run at least in duplicate.
(§3) Inhibition of cell growth was estimated after treatment with compound or combination of compounds for three days and comparing the signal to cells treated with vehicle (DMSO). Cell growth was calculated relative to vehicle (DMSO) treated control wells. Concentration of compound that inhibits 50% of control cell growth (IC50) was back-interpolated when y=50% of DMSO treated control wells using nonlinear regression with the equation: […]
On the technique in general: Cellular ATP, detected with luciferase, serves as a proxy for viable cell number.

The next experiment relates to CORL23. Described as above. Type of experiment: cell-based, Human. Conditions: CORL23 (KRAS_G12V), single agent, mean ± std. How it is done: as §1, §2, §3
The next experiment has as its system Calu1. The experiment is described as above. Type of experiment: cell-based, Human. Conditions: Calu1 (KRAS_G12C), single agent, mean ± std. How it is done: as §1, §2, §3
Another experiment relates to HOP62. Described as above. It is filed as cell-based, Human. Conditions: HOP62 (KRAS_G12C), single agent, mean ± std. Here is the method: as §1, §2, §3
A further experiment has as its system MV522. Described as above. The conditions noted are these: MV522 (BRAF_V600E), single agent, mean ± std. Type of experiment: cell-based, Human. How it is done:
as §1, §2, §3

In the next experiment the test system is NCI-H1155. The experiment is described as above. It is filed as cell-based, Human. The conditions noted are these: NCI-H1155 (KRAS_Q61H), single agent, mean ± std. Here is the method: as §1, §2, §3
The subject of the next experiment is NCI-H1299. The experiment is described as above. It is filed as cell-based, Human. The conditions noted are these: NCI-H1299 (NRAS_Q61K), single agent, mean ± std. How it is done:
as §1, §2, §3

For another experiment, the system named is NCI-H1395. The description is as above. It is filed as cell-based, Human. Conditions: NCI-H1395 (BRAF_G469A), single agent, mean ± std. How it is done: as §1, §2, §3
In the next experiment the test system is NCI-H1573. Described as above. It is filed as cell-based, Human. Conditions: NCI-H1573 (KRAS-G12A), single agent, mean ± std. Here is the method:
as §1, §2, §3

The next experiment concerns NCI-H157. The description is as above. Type of experiment: cell-based, Human. Conditions: NCI-H157 (KRAS_G12R), single agent, mean ± std. How it is done:
as §1, §2, §3

Another experiment deals with NCI-H1666. The description is as above. Type of experiment: cell-based, Human. Conditions: NCI-H1666 (BRAF_G466V), single agent, mean ± std. How it is done: as §1, §2, §3
In the next experiment the test system is NCI-H1792. Described as above. Type of experiment: cell-based, Human. Conditions: NCI-H1792 (KRAS_G12C), single agent, mean ± std. How it is done: as §1, §2, §3
Another experiment concerns NCI-H2030. Described as above. Type of experiment: cell-based, Human. The conditions noted are these: NCI-H2030 (KRAS_G12C), single agent, mean ± std. Here is the method:
as §1, §2, §3

The next experiment has as its system NCI-H2122. The experiment is described as above. It is filed as cell-based, Human. The conditions noted are these: NCI-H2122 (KRAS_G12C), single agent, mean ± std. Here is the method:
as §1, §2, §3

In a further experiment the test system is NCI-H2291. The description is as above. It is filed as cell-based, Human. Conditions: NCI-H2291 (KRAS_G12F), single agent, mean ± std. Here is the method: as §1, §2, §3
The test system of another experiment is NCI-H23. The experiment is described as above. Conditions: NCI-H23 (KRAS_G12C), single agent, mean ± std. Type of experiment: cell-based, Human. Here is the method: as §1, §2, §3
Another experiment relates to NCI-H441. The description is as above. Type of experiment: cell-based, Human. The conditions noted are these: NCI-H441 (KRAS_G12V), single agent, mean ± std. How it is done:
as §1, §2, §3

In another experiment the test system is NCI-H460. Described as above. It is filed as cell-based, Human. Conditions: NCI-H460 (KRAS_Q61H), single agent, mean ± std. How it is done: as §1, §2, §3
In a further experiment the test system is NCI-H727. Described as above. It is filed as cell-based, Human. Conditions: NCI-H727 (KRAS_G12V), single agent, mean ± std. Here is the method: as §1, §2, §3
Experiment [1] concerns panel of 29 human lung tumor cell lines. In words: Cell growth inhibition, summary over the panel. Type of experiment: cell-based. Conditions: out of 29 lines; single agent. How it is done: as §1
Cells were seeded in a 96-well tissue culture plate (NUNC 136102) of RPMI medium containing 10% FBS at 500-2,000 cells per well. […] ATP levels were determined by adding Cell Titer Glo® (Promega) according to the manufacturer's protocol. Briefly, Cell Titer Glo® was added to each plate, incubated for 20 minutes then luminescent signal was read on the SpectraMax L plate reader with a 0.5 sec integration time. […]
Inhibition of cell growth was estimated after treatment with compound or combination of compounds for three days and comparing the signal to cells treated with vehicle (DMSO). Cell growth was calculated relative to vehicle (DMSO) treated control wells. […]

Where [2] appears, read: read-out: IC50 Single Agent Compound A.
Setting [3] is: Homo sapiens, 72 h, read-out: IC50 Single Agent Compound B.

Take “N-{3-[3-cyclopropyl-5-(2-fluoro-4-iodo-phenylamino)6,8-dimethyl;-2,4,7-trioxo-3,4,6,7-tetrahydro-2H-pyrido[4,3-d]pyrimidin-1-yl]phenyl}acetamide [Compound A]”: the IC50 in the experiment on A549 (setting [2]) is 32 ± 9 nM; in the experiment with CORL23 (setting [2]), 989 ± 86 nM; with Calu1 (setting [2]), over 1000 nM; with HOP62 (setting [2]), over 1000 nM; with MV522 (setting [2]), 1 nM; in the experiment on NCI-H1155 (setting [2]) it was over 1000 nM. Moreover, the IC50 in the experiment with NCI-H1299 (setting [2]) was 277 ± 92 nM; in the experiment with NCI-H1395 (setting [2]), over 1000 nM; in the experiment on NCI-H1573 (setting [2]), 82 ± 11 nM; in the experiment on NCI-H157 (setting [2]), over 1000 nM; in the experiment with NCI-H1666 (setting [2]), 44 ± 46 nM; with NCI-H1792 (setting [2]), 59 ± 23 nM. For the same compound, the concentration for half-maximal inhibition (IC50) was over 1000 nM in the experiment with NCI-H2030 (setting [2]); 5 ± 1 nM in the experiment with NCI-H2122 (setting [2]); 4 nM with NCI-H2291 (setting [2]); 31 ± 2 nM in the experiment on NCI-H23 (setting [2]); over 1000 nM in the experiment on NCI-H441 (setting [2]); 37 ± 11 nM with NCI-H460 (setting [2]). Moreover, the IC50 in the experiment on NCI-H727 (setting [2]) turned out to be 3 ± 1 nM. In addition, the “number of lines sensitive (IC50s<100 nM)” value in [1] is listed as 17.
Take `CO[C@H]1C[C@@H]2CC[C@@H](C)[C@@](O)(O2)C(=O)C(=O)N2CCCC[C@H]2C(=O)O[C@H]([C@H](C)C[C@@H]2CC[C@@H](OCCO)[C@H](OC)C2)CC(=O)[C@H](C)/C=C(\C)[C@@H](O)[C@@H](OC)C(=O)[C@H](C)C[C@H](C)/C=C/C=C/C=C/1C` [Compound B, everolimus]: the half-inhibitory concentration (IC50) in the experiment on A549 (setting [3]) was 3 ± 3 nM; in the experiment with CORL23 (Homo sapiens, COR-L23, 72 h, read-out: IC50 Single Agent Compound B) it was over 100 nM; in the experiment on Calu1 (Homo sapiens, Calu-1, 72 h, read-out: IC50 Single Agent Compound B) it was over 100 nM; with HOP62 (Homo sapiens, HOP-62, 72 h, read-out: IC50 Single Agent Compound B) it was over 100 nM; with MV522 (setting [3]) it was over 100 nM; with NCI-H1155 (setting [3]) it was over 100 nM. Also, the IC50 in the experiment with NCI-H1299 (setting [3]), in the experiment with NCI-H1395 (setting [3]), with NCI-H1573 (setting [3]), with NCI-H157 (setting [3]), with NCI-H1666 (setting [3]) and in the experiment with NCI-H1792 (setting [3]) was over 100 nM each time. Further, the IC50 in the experiment on NCI-H2030 (setting [3]) is over 10 nM; in the experiment on NCI-H2122 (setting [3]) it was 97 ± 37 nM; in the experiment with NCI-H2291 (setting [3]), over 100 nM; in the experiment with NCI-H23 (setting [3]) it was over 100 nM; in the experiment on NCI-H441 (setting [3]), over 100 nM; in the experiment on NCI-H460 (setting [3]), over 70 nM. Also, the IC50 in the experiment on NCI-H727 (setting [3]) is over 100 nM. The “number of lines sensitive (IC50s<100 nM)” value in experiment [1] amounted to 2.
